Among the data in patent US20250270217A1, “IMIDAZ0[1,2-A]PYRIMIDINE-5(1 H)-ONES HAVING A COVALENT WARHEAD AT THE 3-POSITION AS WRN INHIBITORS” (Incyte Corporation, priority 2023, published 2025) are IC50 values, retold here.

Molecules are shown by their SMILES. A value given as a limit tells only on which side of the number the result lay.

The IC50 is the concentration at which inhibition is half-maximal. High values mean lower potency, low ones higher potency.

In assay [1] the target is T1, WRN (Homo sapiens, UniProt Q14191).
T1 construct: A His-tagged construct of WRN (AA S2-S1235) was produced and used for the ATPase assay; His; made in house; host or cells: Sf9 insect cells (baculovirus)
Put plainly: WRN Helicase activity assay (fluorescence DNA unwinding). It counts as biochemical. The settings on record: 1-hr pre-incubation with enzyme; 100 μM ATP, 25 nM forked dsDNA, 1 nM WRN; geometric mean of at least 2 replicates. The protocol:
Compounds of the examples were tested for WRN helicase activity. DNA encoding the target protein, 6×HIS-TEV-WRN-517-945, was produced, cloned and transfected as detailed in Example D. To determine the inhibitory properties of the compounds, a 384 wells plate-based Helicase assay was set up to measure the extent of DNA unwinding (Helicase) activity of WRN. The WRN Helicase assay was designed to measure increase in fluorescence signal using a fluorescence based, donor-quencher paired forked dsDNA oligomer substrate (custom synthesis from Sigma-Aldrich) prepared by annealing equal amounts of oligo GPat-1 ([BHQ2][…]) and oligo GPat-2 ([…][TAM]). Continuous measurement of fluorescent signal was used to optimize the buffer conditions, concentration of enzyme (WRN), concentration of substrates (ATP & dsDNA), and the linearity of the Helicase reaction. All solutions were prepared in the following assay buffer: 50 mM Tris-HCl, pH-7.5, 2 mM MgCl2, 50 mM NaCl, 1 mM EGTA, 0.01% P-20, 0.05% BSA, and 2 mM DTT prepared with nuclease free water.
A serial dilution (1:3 scheme) of the compounds was prepared in neat DMSO and 100 nL of the compounds was dispensed in the Greiner black low volume (Greiner #784076) 384 wells assay plate. An 1-hr pre-incubation of the compounds with enzyme was included. A His-tagged construct of WRN (AA S2-S1235) was produced and used for the ATPase assay. Maximum inhibition control wells were set up with the addition of only assay buffer, and no inhibition control wells were set up with neat DMSO without test compounds. The reaction was initiated by addition of 5 μL substrate mix (200 μM ultrapure ATP, and 50 nM dsDNA prepared in assay buffer) and incubated at 25° C. for 35 min. A typical Helicase reaction consists of 25 nM forked dsDNA, 100 μM ATP, and 1 nM WRN prepared in assay buffer. The WRN Helicase reaction was quenched by the addition of 5 μL ‘STOP’ solution containing 100 mM EDTA (final EDTA concentration 33.33 mM) prepared in assay buffer. The plates were read on BMG PHERAstar FSX using 540/590 module to measure an increase of fluorescence. Data analysis was carried out using the Genedata software following % of control normalization. Fitting parameters include dose response IC50, Hill slope (n), maximum inhibition (S∞), and minimum inhibition (S0). The reported IC50 values for compounds in this invention are the geometric means of at least 2 independent replicates.

Assay [2] has as its target T1, WRN. Put plainly: WRN ATPase activity assay (ADP-Glo). As to conditions: 1-hr pre-incubation with enzyme; 100 μM ATP, 25 nM forked dsDNA, 1 nM WRN; geometric mean of at least 2 replicates. Type of assay: biochemical. The protocol:
Compounds of the Examples were tested for WRN ATPase activity. WRN ATPase activity catalyzes ATP hydrolysis to produce ADP and phosphate. DNA encoding the target protein, 6×HIS-TEV-WRN-517-945, was produced, cloned and transfected as detailed in Example D. The amount of ADP produced was measured using ADP-Glo™ Kinase Assay kit from Promega Corporation in a Greiner white regular volume 384 wells assay plate (Greiner #781075). Data was normalized to a standard curve generated using various ADP concentrations and the corresponding luminescent signal intensities at each concentration. The assay conditions were optimized for enzyme concentration (WRN), substrate concentrations (ATP & dsDNA), and the linearity of the ATPase reaction, in the following assay buffer: 50 mM Tris-HCl, pH-7.5, 2 mM MgCl2, 50 mM NaCl, 1 mM EGTA, 0.01% P-20, 0.05% BSA, and 2 mM DTT prepared with nuclease free water.
A serial dilution (1:3 scheme) of the compounds were prepared in neat DMSO, with 100 nL of the compounds dispensed in the 384 wells assay plate. An 1-hr pre-incubation of the compounds with enzyme was included. A His-tagged construct of WRN (AA S2-S1235) was produced and used for the ATPase assay. Maximum inhibition control wells were set up with the addition of only assay buffer, and no inhibition control wells were set up with neat DMSO without test compounds. The reaction was initiated by addition of 5 μL substrate mix (200 μM ultrapure ATP, and 50 nM dsDNA prepared in assay buffer) and incubated at 25° C. for 35 min. A forked dsDNA oligomer substrate was prepared by annealing equal amounts of oligo GPat-1 ([BHQ2][…]) and oligo GPat-2 ([…][TAM]) and was used as dsDNA substrate for WRN ATPase assay. A typical ATPase reaction consists of 25 nM forked dsDNA, 100 μM ATP, and 1 nM WRN prepared in assay buffer. The WRN ATPase reaction was stopped by the addition of 5 μL of ADP-Glo Reagent from ADP-Glo™ Kinase Assay kit and incubated for 40 min to deplete the unreacted ATP. Afterwards, 5 μL of Kinase Detection Reagent from the ADP-Glo™ Kinase Assay kit was added and incubated for 1 hr for the development of luminescence signal.
Luminesce signals were measured on BMG PHERAstar FSX using luminescence protocol. Data analysis was carried out using Genedata software following % of control normalization. Fitting parameters include dose response IC50, Hill slope (n), maximum inhibition (S∞), and minimum inhibition (S0). The reported IC50 values for compounds in this invention are the geometric means of at least 2 independent replicates.

T1 sequence (Q14191 2-1235): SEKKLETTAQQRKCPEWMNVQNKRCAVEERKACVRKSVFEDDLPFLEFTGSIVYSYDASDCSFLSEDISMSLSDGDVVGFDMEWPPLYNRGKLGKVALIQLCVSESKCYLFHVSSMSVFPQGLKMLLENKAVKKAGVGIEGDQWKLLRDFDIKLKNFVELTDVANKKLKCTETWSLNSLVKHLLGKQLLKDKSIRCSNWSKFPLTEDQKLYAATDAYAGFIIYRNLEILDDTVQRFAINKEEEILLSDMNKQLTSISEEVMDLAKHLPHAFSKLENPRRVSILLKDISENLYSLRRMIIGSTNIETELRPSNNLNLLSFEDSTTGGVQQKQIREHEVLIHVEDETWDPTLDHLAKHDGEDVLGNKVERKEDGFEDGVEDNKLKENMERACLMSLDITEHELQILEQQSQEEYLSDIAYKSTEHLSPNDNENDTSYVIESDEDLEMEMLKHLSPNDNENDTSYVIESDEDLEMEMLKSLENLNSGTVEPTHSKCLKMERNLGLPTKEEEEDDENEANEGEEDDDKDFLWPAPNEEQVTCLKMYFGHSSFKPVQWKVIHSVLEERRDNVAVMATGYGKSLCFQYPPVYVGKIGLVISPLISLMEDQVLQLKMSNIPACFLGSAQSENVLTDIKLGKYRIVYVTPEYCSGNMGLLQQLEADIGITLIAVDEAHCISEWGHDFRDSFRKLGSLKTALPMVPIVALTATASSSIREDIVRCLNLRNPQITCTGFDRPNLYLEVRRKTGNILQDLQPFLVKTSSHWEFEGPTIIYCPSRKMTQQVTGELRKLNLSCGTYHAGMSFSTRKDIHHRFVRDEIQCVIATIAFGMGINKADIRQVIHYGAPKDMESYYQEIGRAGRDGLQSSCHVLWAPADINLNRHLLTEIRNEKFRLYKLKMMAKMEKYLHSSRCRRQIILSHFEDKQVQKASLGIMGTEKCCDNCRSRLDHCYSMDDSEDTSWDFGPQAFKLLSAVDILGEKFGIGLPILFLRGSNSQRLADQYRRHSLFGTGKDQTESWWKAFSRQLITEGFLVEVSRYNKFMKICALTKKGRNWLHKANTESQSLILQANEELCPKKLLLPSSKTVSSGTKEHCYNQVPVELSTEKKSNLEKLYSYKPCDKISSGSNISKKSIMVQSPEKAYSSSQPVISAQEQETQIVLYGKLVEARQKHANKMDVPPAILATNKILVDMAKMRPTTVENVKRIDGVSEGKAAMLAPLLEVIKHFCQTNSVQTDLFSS

Regarding `C=CC(=O)Nc1ccccc1-c1c(CC)nc2n(CC(=O)Nc3ccc(C(F)(F)F)cc3)c(C)c(-c3cnn(C)c3)n2c1=O` [Example 16, N-(2-(7-Ethyl-2-methyl-3-(1-methyl-1H-pyrazol-4-yl)-5-oxo-1-(2-oxo-2-((4-(trifluoromethyl)phenyl)amino)ethyl)-1,5-dihydroimidazo[1,2-a]pyrimidin-6-yl)phenyl)acrylamide], the IC50 in assay [1] and in assay [2] was less than 100 nM throughout.
Regarding `C=CC(=O)Nc1ccccc1-c1c(CC)nc2n(CC(=O)Nc3ccc(F)cc3)ccn2c1=O` [Example 17, N-(2-(7-ethyl-1-(2-((4-fluorophenyl)amino)-2-oxoethyl)-5-oxo-1,5-dihydroimidazo[1,2-a]pyrimidin-6-yl)phenyl)acrylamide], the IC50 in assay [1] and in assay [2] was 100 to 500 nM in each case.
As to `C=CC(=O)Nc1ccccc1-c1c(CC)nc2n(CC(=O)Nc3ccc(F)cc3)c(C)c(C)n2c1=O` [Example 18, N-(2-(7-Ethyl-1-(2-((4-fluorophenyl)amino)-2-oxoethyl)-2,3-dimethyl-5-oxo-1,5-dihydroimidazo[1,2-a]pyrimidin-6-yl)phenyl)acrylamide], the IC50 in assay [1] and in assay [2] was less than 100 nM in each case.
In the case of `C=CC(=O)Nc1ccccc1-c1c(C)nc2n(CC(=O)Nc3ccc(F)cc3)c(C)c(C)n2c1=O` [Example 19, N-(2-(1-(2-((4-Fluorophenyl)amino)-2-oxoethyl)-2,3,7-trimethyl-5-oxo-1,5-dihydroimidazo[1,2-a]pyrimidin-6-yl)phenyl)acrylamide], the IC50 in assay [1] and in assay [2] was less than 100 nM in each case.
Regarding `C=CC(=O)Nc1ccccc1-c1c(CC)nc2n(CC(=O)Nc3ccc(F)cc3Cl)c(C)c(C)n2c1=O` [Example 20, N-(2-(1-(2-((2-Chloro-4-fluorophenyl)amino)-2-oxoethyl)-7-ethyl-2,3-dimethyl-5-oxo-1,5-dihydroimidazo[1,2-a]pyrimidin-6-yl)phenyl)acrylamide], the IC50 in assay [1] and in assay [2] was less than 100 nM in each case.
`C=CC(=O)Nc1ccccc1-c1c(CC)nc2n(CC(=O)Nc3ccc(C(F)(F)F)cc3)c(C)c(C)n2c1=O` [Example 21, N-(2-(7-Ethyl-2,3-dimethyl-5-oxo-1-(2-oxo-2-((4-(trifluoromethyl)phenyl)amino)ethyl)-1,5-dihydroimidazo[1,2-a]pyrimidin-6-yl)phenyl)acrylamide]: the half-maximal inhibitory concentration (IC50) in assay [1] and in assay [2] was less than 100 nM each time.
On to `C=CC(=O)Nc1ccccc1-c1c(CC)nc2n(CC(=O)Nc3ccc(C(F)(F)F)cc3)c(-c3ccccc3)cn2c1=O` [Example 22, N-(2-(7-Ethyl-5-oxo-1-(2-oxo-2-((4-(trifluoromethyl)phenyl)amino)ethyl)-2-phenyl-1,5-dihydroimidazo[1,2-a]pyrimidin-6-yl)phenyl)acrylamide], for which the figures for the concentration for half-maximal inhibition (IC50) in assay [1] and in assay [2] were 500 to 1000 nM and 1000 to 5000 nM, respectively.
Regarding `C=CC(=O)Nc1cc(C(=O)NC2CC2)ccc1-c1c(CC)nc2n(CC(=O)Nc3ccc(C(F)(F)F)cc3)c(C)c(C)n2c1=O` [Example 23, 3-Acrylamido-N-cyclopropyl-4-(7-ethyl-2,3-dimethyl-5-oxo-1-(2-oxo-2-((4-(trifluoromethyl)phenyl)amino)ethyl)-1,5-dihydroimidazo[1,2-a]pyrimidin-6-yl)benzamide], the IC50 in assay [1] and in assay [2] was less than 100 nM each time.
With `C=CC(=O)Nc1cc(C(=O)NC2CC2)ccc1-c1c(CC)nc2n(CC(=O)Nc3ccc(F)cc3)c(C)c(C)n2c1=O` [Example 24, 3-Acrylamido-N-cyclopropyl-4-(7-ethyl-1-(2-((4-fluorophenyl)amino)-2-oxoethyl)-2,3-dimethyl-5-oxo-1,5-dihydroimidazo[1,2-a]pyrimidin-6-yl)benzamide], the IC50 in assay [1] and in assay [2] was less than 100 nM each time.
Take `C=CC(=O)Nc1cc(C(=O)NC2CC2)ccc1-c1c(CC)nc2n(CC(=O)Nc3ccc(F)cc3Cl)c(C)c(C)n2c1=O` [Example 25, 3-Acrylamido-4-(1-(2-((2-chloro-4-fluorophenyl)amino)-2-oxoethyl)-7-ethyl-2,3-dimethyl-5-oxo-1,5-dihydroimidazo[1,2-a]pyrimidin-6-yl)-N-cyclopropylbenzamide]: the IC50 in assay [1] and in assay [2] was less than 100 nM in each case.
Turning to `C=CC(=O)Nc1cc(C(=O)NC2CC2)ccc1-c1c(CC)nc2n(CC(=O)Nc3ccc(C(F)(F)F)cc3Cl)c(C)c(C)n2c1=O` [Example 26, 3-Acrylamido-4-(1-(2-((2-chloro-4-(trifluoromethyl)phenyl)amino)-2-oxoethyl)-7-ethyl-2,3-dimethyl-5-oxo-1,5-dihydroimidazo[1,2-a]pyrimidin-6-yl)-N-cyclopropylbenzamide], the IC50 in assay [1] and in assay [2] was less than 100 nM in each case.
Turning to `C=CC(=O)Nc1cc(C(=O)NCC)ccc1-c1c(CC)nc2n(CC(=O)Nc3ccc(C(F)(F)F)cc3)c(C)c(C)n2c1=O` [Example 27, 3-Acrylamido-N-ethyl-4-(7-ethyl-2,3-dimethyl-5-oxo-1-(2-oxo-2-((4-(trifluoromethyl)phenyl)amino)ethyl)-1,5-dihydroimidazo[1,2-a]pyrimidin-6-yl)benzamide], the IC50 in assay [1] and in assay [2] was less than 100 nM throughout.
Consider `C=CC(=O)Nc1cc(C(=O)NC(C)C)ccc1-c1c(CC)nc2n(CC(=O)Nc3ccc(C(F)(F)F)cc3)c(C)c(C)n2c1=O` [Example 28, 3-Acrylamido-4-(7-ethyl-2,3-dimethyl-5-oxo-1-(2-oxo-2-((4-(trifluoromethyl)phenyl)amino)ethyl)-1,5-dihydroimidazo[1,2-a]pyrimidin-6-yl)-N-isopropylbenzamide], for which the IC50 in assay [1] and in assay [2] was less than 100 nM in each case.
Consider `C=CC(=O)Nc1cc(C(=O)NC2CCC2)ccc1-c1c(CC)nc2n(CC(=O)Nc3ccc(C(F)(F)F)cc3)c(C)c(C)n2c1=O` [Example 29, 3-Acrylamido-N-cyclobutyl-4-(7-ethyl-2,3-dimethyl-5-oxo-1-(2-oxo-2-((4-(trifluoromethyl)phenyl)amino)ethyl)-1,5-dihydroimidazo[1,2-a]pyrimidin-6-yl)benzamide], for which the IC50 in assay [1] and in assay [2] was less than 100 nM each time.
Take `C=CC(=O)Nc1cc(C(=O)NCC(F)F)ccc1-c1c(CC)nc2n(CC(=O)Nc3ccc(C(F)(F)F)cc3)c(C)c(C)n2c1=O` [Example 30, 3-Acrylamido-N-(2,2-difluoroethyl)-4-(7-ethyl-2,3-dimethyl-5-oxo-1-(2-oxo-2-((4-(trifluoromethyl)phenyl)amino)ethyl)-1,5-dihydroimidazo[1,2-a]pyrimidin-6-yl)benzamide]: the IC50 in assay [1] and in assay [2] was less than 100 nM throughout.
